Measurements published in patent US20220218671A1 (BOEHRINGER INGELHEIM VETMEDICA GMBH, priority 2019, published 2022).

Assays:
[1] = test system: client-owned dogs with persistent pathologic renal proteinuria due to CKD; assay: Prospective, block-randomized, double-blind clinical trial of telmisartan versus enalapril; UPC measurement (phases I-III); format: in vivo, dog; settings: for Average of UPC change day 30 / Average of UPC change day 60 / Average of UPC change day 90: change from baseline; for Average of UPC change day 30: day 30, all dogs; for Average of UPC change day 60: day 60, all dogs; for Average of UPC change day 60 / Average of UPC change day 90: up-titration allowed; for Average of UPC change day 90: day 90, all dogs; for proportion of dogs that experienced 50% reduction in UPC at day 30: telmisartan 1 mg/kg PO q 24 h, enalapril 0.5 mg/kg PO q 12 h, 16/20 versus 5/17 dogs, P=0.003; for Average of UPC change in dogs with added drug at Day 90, day 120: the other drug additionally administered between day 90 and day 120; for Average of percent UPC change day 30 / Average of percent UPC change day 60 / Average of percent UPC change day 90 / Average of percent UPC change day 120: percent change from baseline; for Average of percent UPC change day 120: the other drug (telmisartan or enalapril) additionally administered between day 90 and day 120
Excerpt: Experimental Methods and Design. A prospective, block-randomized, double-blind clinical trial has been carried out. Fifty-four client-owned dogs with persistent pathologic renal proteinuria have been recruited over a 2-year period.
Animals. Azotemic and non-azotemic dogs (N=54) with hypertensive and non-hypertensive CKD have been recruited prospectively from patients presented to the hospital. Dogs included as cases will have confirmed persistent pathologic renal proteinuria due to CKD; in order to be classified as such, fulfillment of the criteria described below will be required.
Inclusion criteria. […] Abdominal ultrasound findings consistent with CKD (bilaterally small, irregular kidneys) and absence of renal neoplasia have also been documented.
Exclusion criteria. […] Dogs with suspected or confirmed hyper-adrenocorticism and diabetes mellitus have been included if their disease is considered well controlled with medical therapy.
Patient grouping for block randomization: Once included in the study and based on the presence/degree of azotemia, dogs have been grouped according to the International Renal Interest Society (IRIS) classification scheme for CKD. Those classified as IRIS stages 2-4 (serum creatinine ≥1.4 mg/dL with inappropriately dilute urine [USG<1.030]) have been considered azotemic (AZ), and those classified as IRIS stage 1 (creatinine <1.4 mg/dL) have been considered non-azotemic (non-AZ). Within each of these two groups, dogs will then be stratified according to IRIS recommendations for arterial pressure (AP) substaging. According to this scheme, dogs with persistent average indirect arterial systolic BP<150 mm Hg will be classified as AP0 (minimal risk for target organ damage). Those with persistent average indirect arterial systolic BP150 mm Hg have been classified as AP1-3 (at risk for target organ damage). Four groups will thus be identified:
Baseline. On inclusion (day 0), all owners have been required to read/sign a form consenting to their pets' participation in the study. The following baseline data have been collected for each case: full physical examination (performed by one of the study investigators), fundic examination, blood pressure measurement, serum chemistry panel, urinalysis, abdominal ultrasound, UPC and urine culture. The results of screening tests, if performed within 2 weeks of inclusion in the study, may be used as baseline information. Baseline UPC has been defined as the average of two measurements, taken 2 weeks apart, prior to enrollment.
ARB/ACEi therapy. […] Owners have been provided with appropriate contact numbers in the event of an emergency.
Antihypertensive/other therapy. For dogs that are classified as AP3 (SBP180 mmHg; 200 mmHg in sighthounds), a calcium channel blocker (CCB; amlodipine, 0.1 mg/kg PO q 24 hours) has been administered contemporaneously. […] All dogs have been started or maintained on a commercially available diet formulated to be low in phosphorus and protein, for at least 1 month prior to enrollment.
Monitoring: The monitoring protocol followed the recommendations of the IRIS Canine GN Study Group Standard Therapy Subgroup. All dogs have been rechecked on day 7, at which time physical examination, SBP, serum creatinine (sCr) and serum potassium (K) have been evaluated. An increase in sCr of >30% compared to baseline or identification of moderate/severe hyperkalemia (serum K>6.5 mmol/L) or systolic hypotension (SBP<120) has prompt the investigator unmasking and removal of the patient from the study. For dogs in which average SBP of approximately 180 mm Hg was reliably identified (i.e. dogs classified as AP3), amlodipine will be up-titrated to 0.1 mg/kg PO BID. Thereafter, dogs classified as AP3 have been rechecked at 7-day intervals to ensure efficacy of therapy with adjustment of antihypertensive therapy.

[2] = test system: naturally occurring proteinuria; settings: cited from earlier work
[3] = dogs without added drug at day 90

SMILES: CCCc1nc2c(C)cc(-c3nc4ccccc4n3C)cc2n1Cc1ccc(-c2ccccc2C(=O)O)cc1 [Telmisartan, telmisartan]
- Average of UPC change day 30 [1]: −2,516
- Average of UPC change day 60 [1]: −3.769
- Average of UPC change day 90 [1]: −4.341
- proportion of dogs that experienced 50% reduction in UPC at day 30 [1]: 80%
- Average of UPC change in dogs with added drug at Day 90, day 30 [1]: −4.20
- Average of UPC change in dogs with added drug at Day 90, day 60 [1]: −4.83
- Average of UPC change in dogs with added drug at Day 90, day 90 [1]: −4.83
- Average of UPC change in dogs with added drug at Day 90, day 120 ([1]; day 120): −5.84
- Average of UPC change in dogs without added drug at Day 90, day 30 [1, 3]: −1.82
- Average of UPC change in dogs without added drug at Day 90, day 60 [1, 3]: −2.81
- Average of UPC change in dogs without added drug at Day 90, day 90 [1, 3]: −2.01
- Average of percent UPC change day 30 [1]: −57.01%
- Average of percent UPC change day 60 [1]: −65.87%
- Average of percent UPC change day 90 [1]: −68.79%
- Average of percent UPC change day 120 ([1]; day 120): −76.70^2%

SMILES: CCOC(=O)[C@H](CCc1ccccc1)N[C@@H](C)C(=O)N1CCC[C@H]1C(=O)O [Enalapril, enalapril]
- subjects experiencing an increase in proteinuria despite therapy ([2]; 3/14 subjects): 22%
- subjects with clinically significant (i.e., 50%) reduction in proteinuria ([2]; 9/14 subjects): 64%
- Average of UPC change day 30 [1]: −1.075
- Average of UPC change day 60 [1]: −1.260
- Average of UPC change day 90 [1]: −1.194
- proportion of dogs that experienced 50% reduction in UPC at day 30 [1]: 29.4%
- Average of UPC change in dogs with added drug at Day 90, day 30 [1]: −0.30
- Average of UPC change in dogs with added drug at Day 90, day 60 [1]: −0.79
- Average of UPC change in dogs with added drug at Day 90, day 90 [1]: −1.05
- Average of UPC change in dogs with added drug at Day 90, day 120 ([1]; day 120): −2.97
- Average of UPC change in dogs without added drug at Day 90, day 30 [1, 3]: −0.71
- Average of UPC change in dogs without added drug at Day 90, day 60 [1, 3]: −1.02
- Average of UPC change in dogs without added drug at Day 90, day 90 [1, 3]: −0.68
- Average of UPC change in dogs without added drug at Day 90, day 120 ([1]; dogs without added drug at day 90, day 120): −0.92
- Average of percent UPC change day 30 [1]: −27.34%
- Average of percent UPC change day 60 [1]: −37.56%
- Average of percent UPC change day 90 [1]: −30.57%
- Average of percent UPC change day 120 ([1]; day 120): −75.14^1%
